According to patent publication US20100183604A1, “PREVENTIVE/REMEDY FOR CANCER” (TAKEDA PHARMACEUTICAL COMPANY LIMITED, priority 2007, published 2010):
Entries after “also recorded” stand apart in the source; their conditions may differ.

Legend:
[1] = system: BT474 cells highly sensitive to trastuzumab; assay: Viable cell count after HER2 inhibitor addition (no siRNA), high sensitive cell line; assay type: cell-based, human; conditions: 5 days; for growth suppression: 1 μmol/L, no siRNA; for concentration dependence of growth (proliferation) suppression: range of final concentrations, similar level in both lines
Protocol: (§1) After culture for 5 days at 37° C., 5% CO2, the number of viable cells was counted.

[2] = system: trastuzumab low sensitive BT-474 cells; assay: Viable cell count after HER2 inhibitor addition (no siRNA), low sensitive cell line; assay type: cell-based, human; conditions: 5 days; for growth suppression: 1 μmol/L, no siRNA; for concentration dependence of growth (proliferation) suppression: range of final concentrations, similar level in both lines
Protocol: as §1

CC(C)(O)CC(=O)NCCn1ccc2ncnc(Nc3ccc(Oc4cccc(C(F)(F)F)c4)c(Cl)c3)c21 [compound A, N-{2-[4-({3-chloro-4-[3-(trifluoromethyl)phenoxy]phenyl}amino)-5H-pyrrolo[3,2-d]pyrimidin-5-yl]ethyl}-3-hydroxy-3-methylbutanamide] was tested, and the growth suppression [1] was “complete suppression of growth”, the “concentration dependence of growth (proliferation) suppression” value (“concentration dependence of growth” below) [1] was “suppressed in a concentration-dependent manner; also recorded: concentration-dependent growth suppression” and the growth suppression [2] was “complete suppression of growth”. For the same compound, the “concentration dependence of growth” value [2] was “suppressed in a concentration-dependent manner; also recorded: concentration-dependent growth suppression”.
CS(=O)(=O)CCNCc1ccc(-c2ccc3ncnc(Nc4ccc(OCc5cccc(F)c5)c(Cl)c4)c3c2)o1 [lapatinib] was tested, and the growth suppression [1] was “complete suppression of growth”, the “concentration dependence of growth” value [1] was “suppressed in a concentration-dependent manner; also recorded: concentration-dependent growth suppression” and the growth suppression [2] was “complete suppression of growth”. For the same compound, the “concentration dependence of growth” value [2] was “suppressed in a concentration-dependent manner; also recorded: concentration-dependent growth suppression”.
